The IC50 is the midpoint of a concentration-inhibition curve. The low end stands for greater potency, the high end for weaker potency. The term Kd denotes the equilibrium constant for the complex coming apart.

The target in one assay is Smo (Homo sapiens, UniProt Q99835). In words: Bodipy-Cyclopamine Binding Assay (confirmation assay), Hek293-SMO cells.
Smo, sequence (Q99835 28-787): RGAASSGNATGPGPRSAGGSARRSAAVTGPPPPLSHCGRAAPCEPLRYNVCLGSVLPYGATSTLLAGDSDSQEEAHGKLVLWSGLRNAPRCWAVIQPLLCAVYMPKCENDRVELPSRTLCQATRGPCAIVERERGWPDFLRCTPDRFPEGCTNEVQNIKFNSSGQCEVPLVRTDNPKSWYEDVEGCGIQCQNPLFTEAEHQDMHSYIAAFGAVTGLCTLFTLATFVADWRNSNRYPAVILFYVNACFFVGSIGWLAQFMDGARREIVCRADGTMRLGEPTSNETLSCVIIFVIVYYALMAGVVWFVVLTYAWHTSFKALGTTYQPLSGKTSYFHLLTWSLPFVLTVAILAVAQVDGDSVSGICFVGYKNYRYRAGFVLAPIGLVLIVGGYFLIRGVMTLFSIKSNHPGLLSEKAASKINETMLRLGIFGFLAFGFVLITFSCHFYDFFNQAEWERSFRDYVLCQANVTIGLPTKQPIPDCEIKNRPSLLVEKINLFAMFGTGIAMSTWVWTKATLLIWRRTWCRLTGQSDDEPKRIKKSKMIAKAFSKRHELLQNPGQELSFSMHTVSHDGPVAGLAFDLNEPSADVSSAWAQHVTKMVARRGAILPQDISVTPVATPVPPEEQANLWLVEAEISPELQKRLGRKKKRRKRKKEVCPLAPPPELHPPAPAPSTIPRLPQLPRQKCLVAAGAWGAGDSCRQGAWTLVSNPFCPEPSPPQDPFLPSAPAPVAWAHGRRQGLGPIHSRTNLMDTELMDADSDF
Conditions: not given
`Cc1cnc(-c2cc(N3CC(C)c4nc(N5CCC(O)CC5)ncc4C3=O)ncc2Cl)c(C)c1` (stereo not drawn) [Compound A-78, 6-(5′-chloro-3,5-dimethyl-2,4′-bipyridin-2′-yl)-2-(4-hydroxy-piperidin-1-yl)-8-methyl-7,8-dihydro-pyrido[4,3-d]pyrimidin-5(6H)-one] had an IC50 of 125 nM.
On the same count and under the same terms, under `CSc1ncc2c(n1)C(C)(C)CN(c1cc(-c3ncc(C)cc3C)c(Cl)cn1)C2` [Compound A-79, 6-(5′-chloro-3,5-dimethyl-2,4′-bipyridin-2′-yl)-8,8-dimethyl-2-(methylthio)-5,6,7,8-tetrahydro-pyrido-[4,3-d]pyrim-idine] stands 188 nM; under `Cc1cnc(-c2cc(N3Cc4cnc(NC5CC5)nc4C(C)(C)C3)ncc2Cl)c(C)c1` [Compound A-80, 6-(5′-chloro-3,5-dimethyl-2,4′-bipyridin-2′-yl)-N-cyclopropyl-8,8-dimethyl-5,6,7,8-tetrahydro-pyrido-[4,3-d]pyrimidin-2-amine], 28.1 nM; under `Cc1cnc(-c2cc(N3Cc4cnc(N5CCCC5)nc4C(C)(C)C3)ncc2Cl)c(C)c1` [Compound A-81, 6-(5′-chloro-3,5-dimethyl-2,4′-bipyridin-2′-yl)-8,8-dimethyl-2-(pyrrolidin-1-yl)-5,6,7,8-tetrahydro-pyrido-[4,3-d]pyrimidine], 167 nM.
Still for that read-out and setting: as for `Cc1cnc(-c2cc(N3Cc4cnc(N5CC(C)NC(C)C5)nc4C(C)(C)C3)ncc2Cl)c(C)c1` (stereo not drawn) [Compound A-82, 6-(5′-chloro-3,5-dimethyl-2,4′-bipyridin-2′-yl)-2-(3,5-dimethyl-piperazin-1-yl)-8,8-dimethyl-5,6,7,8-tetrahydro-pyrido-[4,3-d]pyrimidine], the figure is 105 nM; as for `Cc1cnc(-c2cc(N3CC(C)(C)c4nc(N5CCC(O)CC5)ncc4C3=O)ncc2Cl)c(C)c1` [Compound A-83, 6-(5′-chloro-3,5-dimethyl-2,4′-bipyridin-2′-yl)-2-(4-hydroxy-piperidin-1-yl)-8,8-dimethyl-7,8-dihydro-pyrido[4,3-d] pyrimidin-5(6H)-one], 211 nM; as for `Cc1cnc(-c2cc(N3CCc4nc(N)ncc4C3)ncc2Cl)c(C)c1` [Compound A-89, 6-(5′-chloro-3,5-dimethyl-2,4′-bipyridin-2′-yl)-5,6,7,8-tetrahydropyrido-[4,3-d]pyrimidin-2-amine], > 1000 nM.
Same read-out and setting: under `CCOC(=O)Nc1ncc2c(n1)CCN(c1cc(-c3ncc(C)cc3C)c(Cl)cn1)C2` [Compound A-90, ethyl 6-(5′-chloro-3,5-dimethyl-2,4′-bipyridin-2′-yl)-5,6,7,8-tetrahydropyrido[4,3-d]pyrimidin-2-ylcarbamate] stands 408 nM; under `CCNC(=O)Nc1ncc2c(n1)CCN(c1cc(-c3ncc(C)cc3C)c(Cl)cn1)C2` [Compound A-91, 1-(6-(5′-chloro-3,5-dimethyl-2,4′-bipyridin-2′-yl)-5,6,7,8-tetrahydropyrido-[4,3-d]pyrimidin-2-yl)-3-ethylurea], > 1000 nM; under `Cc1cnc(-c2cc(N3CCc4nc(NC(=O)NC(C)C)ncc4C3)ncc2Cl)c(C)c1` [Compound A-92, 1-(6-(5′-chloro-3,5-dimethyl-2,4′-bipyridin-2′-yl)-5,6,7,8-tetrahydropyrido-[4,3-d]pyrimidin-2-yl)-3-isopropylurea], 961 nM.
On to `Cc1cnc(-c2cc(N3CCc4nc(NC(=O)C(C)(C)C)ncc4C3)ncc2Cl)c(C)c1` [Compound A-93, N-(6-(5′-chloro-3,5-dimethyl-2,4′-bipyridin-2′-yl)-5,6,7,8-tetrahydropyrido-[4,3-d]pyrimidin-2-yl)pivalamide], for which the IC50 is 104 nM.
The same measure, in the same setting: as for `CSc1ncc2c(n1)CCN(c1cc(-c3ncc(C)cc3C)c(Cl)cn1)C2=O` [Compound A-96, 6-(5′-chloro-3,5-dimethyl-2,4′-bipyridin-2′-yl)-2-(methylthio)-7,8-dihydro-pyrido[4,3-d]pyrimidin-5(6H)-one], the figure is 169 nM; as for `Cc1cnc(-c2cc(N3CCc4nc(N5CCC(O)CC5)ncc4C3=O)ncc2Cl)c(C)c1` [Compound A-97, 6-(5′-chloro-3,5-dimethyl-2,4′-bipyridin-2′-yl)-2-(4-hydroxypiperidin-1-yl)-7,8-dihydro-pyrido[4,3-d]pyrimidin-5(6H)-one], 84.1 nM; as for `Cc1cnc(-c2cc(N3CCc4nc(S(C)(=O)=O)ncc4C3=O)ncc2Cl)c(C)c1` [Compound A-98, 6-(5′-chloro-3,5-dimethyl-2,4′-bipyridin-2′-yl)-2-(methyl-sulfonyl)-7,8-dihydro-pyrido[4,3-d]pyrimidin-5(6H)-one], 835 nM.
Still for that read-out and setting: as for `Cc1cnc(-c2cc(N3CCc4nc(N5CC(C)NC(C)C5)ncc4C3=O)ncc2Cl)c(C)c1` (stereo not drawn) [Compound A-101, 6-(5′-chloro-3,5-dimethyl-2,4′-bipyridin-2′-yl)-2-(3,5-dimethyl-piperazin-1-yl)-7,8-dihydro-pyrido[4,3-d]pyrimidin-5(6H)-one], the figure is 253 nM; as for `Cc1cnc(-c2cc(N3CCc4nc(NCC5CC5)ncc4C3=O)ncc2Cl)c(C)c1` [Compound A-104, 6-(5′-chloro-3,5-dimethyl-2,4′-bipyridin-2′-yl)-2-(cyclopro-pylmeth-ylamino)-7,8-dihydro-pyrido[4,3-d]pyrimidin-5(6H)-one], 76 nM.
The same measure, in the same setting: under `Cc1cnc(-c2cc(N3CCc4nc(N5CCC(O)C5)ncc4C3=O)ncc2Cl)c(C)c1` (stereo not drawn) [Compound A-105, 6-(5′-chloro-3,5-dimethyl-2,4′-bipyridin-2′-yl)-2-(3-hydroxy-pyrrolidin-1-yl)-7,8-dihydro-pyrido[4,3-d]pyrimidin-5(6H)-one] stands 272 nM.
With `Cc1ccc(-c2cc(N3CCc4nc(NC5CC5)ncc4C3)ncc2Cl)nc1` [Compound A-110, 6-(5′-chloro-5-methyl-2,4′-bipyridin-2′-yl)-N-cyclopropyl-5,6,7,8-tetrahydropyrido-[4,3-d]pyrimidin-2-amine], the 50% inhibitory concentration (IC50) is > 1000 nM.
Take `Cc1cccnc1-c1cc(N2CCc3nc(NC4CC4)ncc3C2)ncc1Cl` [Compound A-111, 6-(5′-chloro-3-methyl-2,4′-bipyridin-2′-yl)-N-cyclopropyl-5,6,7,8-tetrahydropyrido[4,3-d]pyrimidin-2-amine]: the IC50 came to 82.9 nM.
`Clc1cnc(N2CCc3nc(NC4CC4)ncc3C2)cc1-c1ccc2ccccc2n1` [Compound A-112, 6-(5-chloro-4-(quinolin-2-yl)pyridin-2-yl)-N-cyclopropyl-5,6,7,8-tetrahydropyrido-[4,3-d]pyrimidin-2-amine]: the IC50 was 113 nM.
`Clc1cnc(N2CCc3nc(NC4CC4)ncc3C2)cc1-c1ccccn1` [Compound A-113, 6-(5′-chloro-2,4′-bipyridin-2′-yl)-N-cyclopropyl-5,6,7,8-tetrahydropyrido-[4,3-d]pyrimidin-2-amine] yielded an IC50 of 470 nM.
For the compound `FC(F)(F)c1ccc(-c2cc(N3CCc4nc(NC5CC5)ncc4C3)ncc2Cl)nc1` [Compound A-114, 6-(5′-chloro-5-(trifluoro-methyl)-2,4′-bipyridin-2′-yl)-N-cyclopropyl-5,6,7,8-tetrahydro-pyrido-[4,3-d]pyrimidin-2-amine], the half-maximal inhibitory concentration (IC50) is > 1000 nM.
For `Clc1cnc(N2CCc3nc(NC4CC4)ncc3C2)cc1-c1ncccn1` [Compound A-115, 6-(5-chloro-4-(pyrimidin-2-yl)pyridin-2-yl)-N-cyclopropyl-5,6,7,8-tetrahydropyrido[4,3-d]pyrimidin-2-amine], the 50% inhibitory concentration (IC50) is > 1000 nM.
`Clc1cnc(N2CCc3nc(NC4CC4)ncc3C2)cc1-c1cnccn1` [Compound A-116, 6-(5-chloro-4-(pyrazin-2-yl)pyridin-2-yl)-N-cyclopropyl-5,6,7,8-tetrahydropyrido[4,3-d]pyrimidin-2-amine] returned a half-maximal inhibitory concentration (IC50) of 235 nM.
On the same count and under the same terms, under `Clc1cnc(N2CCc3nc(NC4CC4)ncc3C2)cc1-c1nccs1` [Compound A-117, 6-(5-chloro-4-(thiazol-2-yl)pyridin-2-yl)-N-cyclopropyl-5,6,7,8-tetrahydropyrido[4,3-d]pyrimidin-2-amine] stands 169 nM; under `Clc1cnc(N2CCc3nc(NC4CC4)ncc3C2)cc1-c1cccnc1` [Compound A-118, 6-(5′-chloro-3,4′-bipyridin-2′-yl)-N-cyclopropyl-5,6,7,8-tetrahydro-pyrido-[4,3-d]pyrimidin-2-amine], > 1000 nM.

Staying with this assay, now noted: read-out: Kd of bodipy-cyclopamine for WT-Smo; used in the Cheng-Prusoff equation.
`CC1=C2CC3C(CC=C4C[C@@H](O)CCC43C)C2CCC12O[C@@H]1CC(C)CN(CCNC(=O)CCCCCNC(=O)CCC3=[N+]4C(=Cc5c(C)cc(C)n5[B-]4(F)F)C=C3)C1C2C` (stereo partly drawn) [bodipy-cyclopamine, reference compound]: the Kd is 3.5 ± 0.8 nM.

For the origin of these results see patent publication US9695178B2, “6-(2-pyridyl)-7,8-dihydro-5H-pyrido[4,3-D]pyrimidine analogs as hedgehog pathway signaling inhibitors and therapeutic applications thereof” (Suzhou Yunxuan Yiyao Keji Youxian Gongsi, priority 2013, dated 2017).
